This series is described as follows: gradient 5% acetonitrile 3 min, to 50% in 2 min, to 85% in 15 min, held 3 min, 100 µL/min. Conditions: column: Zorbax Extend-C18 2.1 x 50 mm; eluents: water / acetonitrile, 0.1% formic acid. Summed up:
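Retention times of pure standards were taken from adduct peaks that were selected by computer and manually inspected. Over 3 months, mixtures of ~100 molecules were run by HPLC–quadrupole time-of-flight mass spectrometry in positive and negative ionization mode. The Zorbax Extend-C18 column (2.1 × 50 mm, 1.8 μm) ran at 100 μL/min in water and acetonitrile, each containing 0.1% formic acid, with 40 μL dead volume and 900 μL dwell volume.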
Take `Cc1oc(-c2[nH]ncc2C(=O)N2CCOCC2)cc1S(=O)(=O)Nc1cccc(F)c1`: the RP-LC retention time is 669 s. To `COc1ccc(N2CC(c3nc(-c4ccc(OC)c(OC)c4)no3)CC2=O)cc1Cl` (stereo not drawn) belongs 884 s. Compound `Cc1cc(N2CCN(S(=O)(=O)c3cc(F)ccc3C)CC2)nc(N2CCCCC2)n1` registered an RP-LC retention time of 785 s. To `COCC(=O)N(CC(=O)N1CCc2sccc2C1COc1ccc(C(C)C)cc1)C1CC1` (stereo not drawn) belongs 947 s. `CC(C)c1ccc(C(=O)NC(Cc2ccccc2)c2nnc(N3CCSCC3)o2)cc1` (stereo not drawn): the RP-LC retention time turned out to be 996 s. In turn, `CCOc1ccccc1NC(=O)C1CCN(S(=O)(=O)c2cc(-c3noc(C)n3)sc2C)CC1` gave an RP-LC retention time of 1010 s.

For the compound `O=C(CCn1cnc2cc(-c3noc(-c4ccccc4F)n3)ccc21)N1CCCC1`, the RP-LC retention time came out at 730 s.

On to `O=C(c1ccc(C(F)(F)F)cc1)N1CCc2nc(-c3ccc(Cl)cc3)ncc2C1`, for which the RP-LC retention time was 1170 s. To `Cc1ccc(CNC(=O)Nc2ccc3nnc(C)n3c2)cc1` belongs 661 s.

`COCCCNC(=O)CCc1c(C)n(C)c2nc(-c3ccccc3)nn2c1=O` returned an RP-LC retention time of 653 s.

`Cn1nc(N2CCCC(NC(=O)c3cc4cc(Cl)ccc4[nH]3)C2)ccc1=O` (stereo not drawn) showed an RP-LC retention time of 827 s. Then `Cc1c(C(=O)O)nnn1-c1ccc2noc(-c3ccccc3)c2c1`, with 775 s. Consider `CC(=O)c1ccc(NC(=O)CC2COc3ccccc3NC2=O)cc1` (stereo not drawn), for which the RP-LC retention time amounted to 677 s. `O=C(Nc1ccc(F)c(Cl)c1)c1sc2ncccc2c1-n1cccc1` came in with an RP-LC retention time of 1170 s. `Cc1cc(F)ccc1NC(=O)Cn1cccc1-c1nnc(C2CCC2)o1` gave an RP-LC retention time of 916 s.

`CCc1ccc(NC(=O)Cc2nc(C)c(C(=O)NCC(C)C)s2)cc1` came in with an RP-LC retention time of 868 s.

In turn, `COc1ccc(-c2ncc3c(n2)CCN(S(=O)(=O)c2ccc(F)c(F)c2)C3)cc1` displayed an RP-LC retention time of 1060 s. To `Cc1nn2c(S(=O)(=O)N3CCCCC3)c(C(C)C)nc2s1` belongs 911 s; to `CCn1c(N2CCC(C(=O)N3CCN(c4ccccn4)CC3)CC2)cc(=O)n(C)c1=O`, 584 s.

For `CC(NC(=O)c1nnc(-c2ccc(S(=O)(=O)N(C)C)cc2)o1)c1ccccn1` (stereo not drawn), the RP-LC retention time stood at 683 s.

With `COCCNC(=O)C(C)n1c(=O)c(C(F)(F)F)nc2cc(C)c(C)cc21` (stereo not drawn), the RP-LC retention time came to 986 s. Consider `Cc1c(-c2ccnc(N3CCN(C)CC3)n2)cnc2nc(-c3ccncc3)nn12`, for which the RP-LC retention time is 552 s. Then `COc1cc(OC)cc(N2C(=O)C3N=NN(Cc4nc(-c5ccc(OC)cc5OC)no4)C3C2=O)c1` (stereo not drawn), with 865 s; and `COCCN1CCC2(CC1)CN(Cc1cc(OC)cc(OC)c1)Cc1ccccc1O2`, with 560 s.

Consider `CN(C)c1nccnc1OC1CCN(C(=O)c2ccccc2Br)C1` (stereo not drawn), for which the RP-LC retention time is 752 s. With `CN(Cc1ccoc1)C(=O)Nc1ccc(F)cc1`, the RP-LC retention time is 797 s. To `O=C(CN1C(=O)CCC1=O)N1CCC(c2noc(-c3ccccn3)n2)C1` (stereo not drawn) belongs 608 s. Then `CCCN1CCCCc2cc(C(=O)NC(C)CC)sc21` (stereo not drawn), with 1100 s; and `CCc1nc2c(c(=O)n1CC(=O)NCc1ccc(C)cc1)CN(Cc1ccccc1)CC2`, with 661 s. Consider `CCCCCCCCCOc1ccc2[nH]cc(CCN)c2c1`, for which the RP-LC retention time was 996 s. Then `CNC(=O)c1ccc(-c2nc3cc(NS(=O)(=O)c4ccc(F)c(Cl)c4)ccc3n2C)cc1`, with 674 s; and `Cc1noc([C@@H]2CC(F)(F)CN2C(=O)c2cocn2)n1`, with 667 s. `Cc1ccccc1-c1nc2cnccn2c1NCCC(=O)NCc1ccccc1` showed an RP-LC retention time of 669 s.

For the origin of these results see the METLIN SMRT retention time set (Domingo-Almenara et al. 2019).
